Source: PubChem BioAssay AID248 (DTP/NCI, 2004)
“And” between values parts separate entries of the source, which are not always exact repeats. Equal entries are not always repeated. Toxic doses and inconclusive results are not listed. No stated cut-off is given here; in the data, active means T/C of 150% or more; inactive means T/C below 125%.

System: L1210 leukemia ip in BDF1 mice, survival T/C
Assay: NCI In Vivo Anticancer Drug Screen. Data for tumor model L1210 Leukemia (intraperitoneal) in B6D2F1 (BDF1) mice
Settings: higher = longer survival
How it was run: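 Value reflects the ratio of survival in compound-treated mice to survival in vehicle-treated controls, with both groups carrying the same transplanted tumor.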

[1] = endpoint: mean survival time, dose: 100.0 mg/kg/injection, schedule: Q01DX001 (ip), vehicle: carboxymethylcellulose (CMC)
[2] = endpoint: mean survival time, dose: 100.0 mg/kg/injection, schedule: Q04DX003 (ip), vehicle: saline
[3] = endpoint: mean survival time, dose: 200.0 mg/kg/injection, schedule: Q01DX001 (ip), vehicle: carboxymethylcellulose (CMC)
[4] = endpoint: mean survival time, dose: 200.0 mg/kg/injection, schedule: Q04DX003 (ip), vehicle: saline
[5] = endpoint: mean survival time, dose: 400.0 mg/kg/injection, schedule: Q01DX001 (ip), vehicle: carboxymethylcellulose (CMC)
[6] = endpoint: mean survival time, dose: 400.0 mg/kg/injection, schedule: Q04DX003 (ip), vehicle: saline
[7] = endpoint: mean survival time, dose: 100.0 mg/kg/injection, schedule: Q04DX003 (ip), vehicle: saline with Tween-80
[8] = endpoint: mean survival time, dose: 200.0 mg/kg/injection, schedule: Q04DX003 (ip), vehicle: saline with Tween-80
[9] = endpoint: mean survival time, dose: 100.0 mg/kg/injection, schedule: Q01DX009 (ip), vehicle: saline with Tween-80
[10] = endpoint: mean survival time, dose: 200.0 mg/kg/injection, schedule: Q01DX009 (ip), vehicle: saline with Tween-80
[11] = endpoint: mean survival time, dose: 400.0 mg/kg/injection, schedule: Q01DX009 (ip), vehicle: saline with Tween-80
[12] = endpoint: mean survival time, dose: 100.0 mg/kg/injection, schedule: Q04DX002 (ip), vehicle: Klucel (hydroxypropylcellulose) (HPC)
[13] = endpoint: mean survival time, dose: 200.0 mg/kg/injection, schedule: Q04DX002 (ip), vehicle: Klucel (hydroxypropylcellulose) (HPC)
[14] = endpoint: mean survival time, dose: 400.0 mg/kg/injection, schedule: Q04DX002 (ip), vehicle: Klucel (hydroxypropylcellulose) (HPC)
[15] = endpoint: mean survival time, dose: 100.0 mg/kg/injection, schedule: Q01DX009 (ip), vehicle: Klucel (hydroxypropylcellulose) (HPC)
[16] = endpoint: mean survival time, dose: 100.0 mg/kg/injection, schedule: Q04DX003 (ip), vehicle: Klucel (hydroxypropylcellulose) (HPC)
[17] = endpoint: mean survival time, dose: 200.0 mg/kg/injection, schedule: Q01DX009 (ip), vehicle: Klucel (hydroxypropylcellulose) (HPC)
[18] = endpoint: mean survival time, dose: 200.0 mg/kg/injection, schedule: Q04DX003 (ip), vehicle: Klucel (hydroxypropylcellulose) (HPC)
[19] = endpoint: mean survival time, dose: 400.0 mg/kg/injection, schedule: Q01DX009 (ip), vehicle: Klucel (hydroxypropylcellulose) (HPC)
[20] = endpoint: mean survival time, dose: 400.0 mg/kg/injection, schedule: Q04DX003 (ip), vehicle: Klucel (hydroxypropylcellulose) (HPC)
[21] = endpoint: mean survival time, dose: 100.0 mg/kg/injection, schedule: Q04DX002 (ip), vehicle: saline
[22] = endpoint: mean survival time, dose: 50.0 mg/kg/injection, schedule: Q04DX003 (ip), vehicle: Klucel (hydroxypropylcellulose) (HPC)

Measured: T/C

CCN(CC)C(=S)S
inactive: endpoint: mean survival time, dose: 50.0 mg/kg/injection, schedule: Q04DX003 (ip), vehicle: saline 101 % of control | [1] 106 % of control | endpoint: mean survival time, dose: 100.0 mg/kg/injection, schedule: Q01DX009 (ip), vehicle: other 107 % of control | [2] 103 % of control | endpoint: mean survival time, dose: 125.0 mg/kg/injection, schedule: Q01DX010 (ip), vehicle: saline 103 % of control and 90 % of control | [3] 96 % of control | endpoint: mean survival time, dose: 200.0 mg/kg/injection, schedule: Q01DX009 (ip), vehicle: other 103 % of control | [4] 106 % of control | endpoint: mean survival time, dose: 250.0 mg/kg/injection, schedule: Q01DX010 (ip), vehicle: saline 97 % of control and 87 % of control | [5] 102 % of control | endpoint: mean survival time, dose: 400.0 mg/kg/injection, schedule: Q01DX009 (ip), vehicle: other 102 % of control | [6] 103 % of control | endpoint: mean survival time, dose: 500.0 mg/kg/injection, schedule: Q01DX010 (ip), vehicle: saline 100 % of control and 91 % of control | endpoint: mean survival time, dose: 1000.0 mg/kg/injection, schedule: Q01DX010 (ip), vehicle: saline 114 % of control | endpoint: median survival time, dose: 500.0 mg/kg/injection, schedule: Q01DX001 (ip), vehicle: saline 103 % of control | endpoint: median survival time, dose: 1000.0 mg/kg/injection, schedule: Q01DX001 (ip), vehicle: saline 108 % of control

C=CC[N+]1=C(C)C(C)(C)c2ccccc21
inactive: [7] 95 % of control | [8] 96 % of control

C/C=C/C(=O)Nc1cccc(O)c1
inactive: [9] 93 % of control | [10] 91 % of control | [11] 93 % of control

O=[N+]([O-])c1cccc(SNc2cccc(Cl)c2)c1
inactive: [9] 98 % of control | [7] 93 % of control | [8] 95 % of control | endpoint: mean survival time, dose: 400.0 mg/kg/injection, schedule: Q04DX003 (ip), vehicle: saline with Tween-80 90 % of control

NC(CSC1c2ccccc2-c2ccccc21)C(=O)O (centres undefined)
inactive: endpoint: mean survival time, dose: 75.0 mg/kg/injection, schedule: Q01DX001 (ip), vehicle: carboxymethylcellulose (CMC) 96 % of control | endpoint: mean survival time, dose: 150.0 mg/kg/injection, schedule: Q01DX001 (ip), vehicle: carboxymethylcellulose (CMC) 98 % of control | endpoint: mean survival time, dose: 300.0 mg/kg/injection, schedule: Q01DX001 (ip), vehicle: carboxymethylcellulose (CMC) 101 % of control

CS(=O)(=O)OCC(COS(C)(=O)=O)(COS(C)(=O)=O)COS(C)(=O)=O
inactive: [12] 96 % of control | [13] 92 % of control | [14] 107 % of control

CC1(C)CC(=O)CCS1
inactive: [15] 102 % of control | [16] 105 % of control | [17] 96 % of control | [18] 98 % of control | [19] 104 % of control | [20] 100 % of control

CCCCNCCC[P+](c1ccccc1)(c1ccccc1)c1ccccc1
inactive: endpoint: mean survival time, dose: 25.0 mg/kg/injection, schedule: Q04DX002 (ip), vehicle: saline 115 % of control | endpoint: mean survival time, dose: 50.0 mg/kg/injection, schedule: Q04DX002 (ip), vehicle: saline 98 % of control | [21] 105 % of control

CCC(=O)/C=C/C1=C(C)CCCC1(C)C
inactive: [9] 96 % of control | [2] 95 % of control | [10] 93 % of control | [4] 97 % of control | [6] 97 % of control

CNC(=O)Oc1cc2ccccc2cc1C(=O)Nc1ccccc1
inactive: [12] 97 % of control | [13] 100 % of control | [14] 113 % of control

CCCCCCCCCCCCCCCC(=O)N(CCC#N)CCCCN(CCC#N)C(=O)CCCCCCCCCCCCCCC
inactive: endpoint: mean survival time, dose: 50.0 mg/kg/injection, schedule: Q01DX009 (ip), vehicle: saline with Tween-80 97 % of control and 106 % of control | [9] 93 % of control and 90 % of control | [10] 95 % of control and 102 % of control | endpoint: mean survival time, dose: 300.0 mg/kg/injection, schedule: Q01DX009 (ip), vehicle: saline with Tween-80 92 % of control | [11] 98 % of control and 92 % of control | endpoint: mean survival time, dose: 500.0 mg/kg/injection, schedule: Q01DX009 (ip), vehicle: saline with Tween-80 92 % of control

CCOC(=O)C(C(C)=O)C(c1ccc([N+](=O)[O-])cc1)C(C(C)=O)C(=O)OCC (centres undefined)
inactive: endpoint: mean survival time, dose: 3.12 mg/kg/injection, schedule: Q01DX009 (ip), vehicle: saline 86 % of control | endpoint: mean survival time, dose: 6.25 mg/kg/injection, schedule: Q01DX009 (ip), vehicle: saline 88 % of control | endpoint: mean survival time, dose: 12.5 mg/kg/injection, schedule: Q01DX009 (ip), vehicle: saline 89 % of control | endpoint: mean survival time, dose: 25.0 mg/kg/injection, schedule: Q01DX009 (ip), vehicle: saline 86 % of control

CC(O)c1cccc(NC(=O)NC2CCCCC2)c1 (centres undefined)
inactive: [15] 95 % of control | [17] 101 % of control | [19] 95 % of control

O=C(O)O.[Co].[NH-]CCN(CC[NH-])CC[NH-]
inactive: endpoint: mean survival time, dose: 50.0 mg/kg/injection, schedule: Q01DX001 (ip), vehicle: saline 105 % of control | endpoint: mean survival time, dose: 100.0 mg/kg/injection, schedule: Q01DX001 (ip), vehicle: saline 94 % of control | endpoint: mean survival time, dose: 200.0 mg/kg/injection, schedule: Q01DX001 (ip), vehicle: saline 111 % of control | endpoint: mean survival time, dose: 400.0 mg/kg/injection, schedule: Q01DX001 (ip), vehicle: saline 100 % of control

CC(=O)c1ccc2c(c1)Nc1ccccc1S2
inactive: [22] 97 % of control | [15] 104 % of control and 102 % of control | [16] 101 % of control | [17] 106 % of control and 94 % of control | [18] 102 % of control | [19] 95 % of control and 91 % of control | [20] 91 % of control

Cc1nc(Cl)c(C#N)c(C)c1[N+](=O)[O-]
inactive: [2] 95 % of control | [4] 90 % of control

Cc1c2c(cc3c1[nH]c1ccccc13)C(c1ccc(Cl)cc1)=NCC2
inactive: [9] 87 % of control | [10] 87 % of control | [11] 88 % of control

O=S(=O)(F)c1cc(Cl)c(S)cc1Cl
inactive: endpoint: mean survival time, dose: 25.0 mg/kg/injection, schedule: Q04DX003 (ip), vehicle: Klucel (hydroxypropylcellulose) (HPC) 96 % of control | [22] 96 % of control | [16] 98 % of control and 106 % of control

CC[N+]1(CC)CC[N+](CC)(CC)CC1 (tested in a mixture with another compound)
inactive: [21] 102 % of control | endpoint: mean survival time, dose: 200.0 mg/kg/injection, schedule: Q04DX002 (ip), vehicle: saline 97 % of control | endpoint: mean survival time, dose: 400.0 mg/kg/injection, schedule: Q04DX002 (ip), vehicle: saline 102 % of control

Cc1c([N+](=O)[O-])cc(CCn2cnc3c(=O)[nH]cnc32)cc1[N+](=O)[O-]
inactive: endpoint: mean survival time, dose: 50.0 mg/kg/injection, schedule: Q01DX001 (ip), vehicle: carboxymethylcellulose (CMC) 98 % of control | [1] 98 % of control | [3] 95 % of control | [5] 104 % of control

COC(=O)c1c(C(=O)N(C)C)n[nH]c1C1OCC2OC(C)(C)OC21 (centres undefined)
inactive: endpoint: mean survival time, dose: 100.0 mg/kg/injection, schedule: Q01DX005 (ip), vehicle: saline 100 % of control | endpoint: mean survival time, dose: 200.0 mg/kg/injection, schedule: Q01DX005 (ip), vehicle: saline 100 % of control
